Data taken from patent publication US11873298B2, “Compounds and uses thereof” (JANSSEN PHARMACEUTICA NV, priority 2017, dated 2024).
pIC50: −log10 of the molar value.

Legend:
SCD5 = molecular target: T1, SCD5 (Homo sapiens, UniProt Q86SK9); assay: Growth inhibition of humanized yeast strain expressing SCD5 as sole desaturase; assay type: cell-based; conditions: humanized yeast strain, 40 h
T1 construct: host or cells: S. cerevisiae ole1Δ strain (W303 pdr1Δ pdr3Δ background), plasmid pRS316 with TDH3 promoter and CYC1 terminator
T1 sequence (Q86SK9 1-330): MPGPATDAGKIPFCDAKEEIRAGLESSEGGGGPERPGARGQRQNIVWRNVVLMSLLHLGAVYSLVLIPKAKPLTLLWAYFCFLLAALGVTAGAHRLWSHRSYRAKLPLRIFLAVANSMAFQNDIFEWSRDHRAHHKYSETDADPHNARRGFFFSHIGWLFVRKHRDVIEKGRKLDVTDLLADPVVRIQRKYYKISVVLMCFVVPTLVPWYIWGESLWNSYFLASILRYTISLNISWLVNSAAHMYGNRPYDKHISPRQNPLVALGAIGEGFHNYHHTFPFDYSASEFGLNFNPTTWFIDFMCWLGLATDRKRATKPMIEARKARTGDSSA
Method in brief: (§1)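 Measured by optical density at 600 nm, growth of desaturase-dependent yeast (OLE1 deleted; human SCD1, human SCD5 or yeast Ole1 supplied from plasmid) was scored after 24 h (Ole1) or 40 h (SCD1, SCD5) at 30° C. in galactose media lacking uracil with DMSO-delivered compound.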

SCD1 = molecular target: T2, SCD1 (Homo sapiens, UniProt O00767); assay: Growth inhibition of humanized yeast strain expressing SCD1 as sole desaturase; assay type: cell-based; conditions: humanized yeast strain, 40 h
T2 construct: host or cells: S. cerevisiae ole1Δ strain (W303 pdr1Δ pdr3Δ background), plasmid pRS316 with TDH3 promoter and CYC1 terminator
T2 sequence (O00767 1-359): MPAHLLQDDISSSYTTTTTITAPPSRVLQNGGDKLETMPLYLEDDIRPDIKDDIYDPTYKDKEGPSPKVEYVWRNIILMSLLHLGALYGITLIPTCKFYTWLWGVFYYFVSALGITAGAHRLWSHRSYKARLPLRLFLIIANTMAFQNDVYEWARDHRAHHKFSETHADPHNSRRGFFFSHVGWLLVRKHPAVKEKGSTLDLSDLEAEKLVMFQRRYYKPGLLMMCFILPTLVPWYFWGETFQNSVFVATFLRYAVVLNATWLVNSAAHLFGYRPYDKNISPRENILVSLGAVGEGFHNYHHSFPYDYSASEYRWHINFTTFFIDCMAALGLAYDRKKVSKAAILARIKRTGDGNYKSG
Method in brief: as §1

Structure (SMILES) | pIC50 (SCD5) | pIC50 (SCD1)
COC(=O)N1CCC(c2noc(-c3cc4c(cnn4C4COC4)cc3F)n2)CC1 [Compound 944] | 5.65 | < 4.35
COC(=O)N1CCC(c2noc(-c3ccc4cnn([C@H]5C[C@@H](O)C5)c4c3)n2)CC1 [Compound 945] | 5.28 | < 4.35
COC(=O)N1CCN(c2noc(-c3ccc4cnn(C5CNC5)c4c3)n2)CC1 [Compound 946] | 5.39 | < 4.35
COC(=O)N1CCN(c2noc(-c3ccnc(NC4COC4)c3)n2)CC1 [Compound 947] | < 4.35 | < 4.35
COC(=O)N1CCC(c2noc(-c3ccc4cnn(C5CNC5)c4c3)n2)CC1 [Compound 948] | < 4.35 | < 4.35
Cc1ncc2n1CCN(c1noc(-c3ccc4cnn(C5COC5)c4c3)n1)C2 [Compound 949] | < 4.35 | < 4.35
COC(=O)N1CCC(c2nc(-c3ccc4cnn(C5CNC5)c4c3)no2)CC1 [Compound 950] | < 4.35 | < 4.35
COC(=O)N1CCC(c2nc(-c3ccc4cnn(C5CN(C(=O)OC(C)(C)C)C5)c4c3)no2)CC1 [Compound 951] | < 4.35 | < 4.35
O=C(N1CCC(c2noc(-c3ccc4cnn(C5COC5)c4c3)n2)CC1)C1(F)CC1 [Compound 952] | 5.04 | 4.81
O=C1CC(n2ncc3ccc(-c4nc(N5CCn6c(Cl)cnc6C5)no4)cc32)C1 [Compound 953] | 8.00 | < 4.35
O=C(N1CC(c2noc(-c3ccc4cnn(C5COC5)c4c3)n2)C1)C(F)(F)F [Compound 954] | 5.54 | < 4.35
CC(C)(C)OC(=O)N1CC=C(c2ccc(-c3ccc4cnn(C5COC5)c4c3)cn2)CC1 [Compound 955] | < 4.35 | < 4.35
C[C@H]1CN(c2noc(-c3ccc4cnn(C5COC5)c4c3)n2)CCN1C(=O)OC(C)(C)C [Compound 956] | 5.61 | < 4.35
O=C(c1ccccc1F)N1CCN(c2noc(-c3ccc4cnn(C5CNC5)c4c3)n2)CC1 [Compound 957] | 8.00 | 4.55
O[C@H]1C[C@@H](n2ncc3ccc(-c4nc(N5CCn6c(Cl)cnc6C5)no4)cc32)C1 [Compound 958] | 4.46 | < 4.35
C[C@@H]1CN(c2noc(-c3ccc4cnn(C5COC5)c4c3)n2)CCN1C(=O)OC(C)(C)C [Compound 959] | < 4.35 | < 4.35
COC(=O)N1CCN(c2noc(-c3ccc4cnn(C5CN(C)C5)c4c3)n2)CC1 [Compound 960] | 8.00 | 4.69
O=C(C1CCC1)N1CCCN(c2noc(-c3ccc4cnn(C5COC5)c4c3)n2)CC1 [Compound 961] | < 4.35 | < 4.35
CCC(=O)N1CCCN(c2noc(-c3ccc4cnn(C5COC5)c4c3)n2)CC1 [Compound 962] | 8.00 | < 4.35
COC(=O)N1CCCN(c2noc(-c3cc(F)c4cnn(C5COC5)c4c3)n2)CC1 [Compound 963] | 6.80 | < 4.35

Structure (SMILES) | pIC50 (SCD5) | pIC50 (SCD1)
CCC1(C(=O)N2CCC(c3noc(-c4ccc5cnn(C6COC6)c5c4)n3)CC2)CC1 [Compound 964] | 7.52 | 6.51
O=C(CC1CC1)N1CCCN(c2noc(-c3ccc4cnn(C5COC5)c4c3)n2)CC1 [Compound 965] | 8.00 | < 4.35
CC(C)(C)OC(=O)N1CCC(c2ccc(-c3ccc4cnn(C5COC5)c4c3)cn2)CC1 [Compound 966] | 6.82 | < 4.35
CC(C)(C)OC(=O)N1CCC(c2ccc(-c3ccc4cnn(C5COC5)c4c3)cc2)CC1 [Compound 967] | 5.82 | < 4.35
CC(C)c1noc2ccc(-c3noc(C4CCN(C(=O)C5CCC5)CC4)n3)cc12 [Compound 968] | 5.55 | < 4.35
O=S(=O)(C1CCC1)N1CCC(c2noc(-c3ccc4cnn(C5COC5)c4c3)n2)CC1 [Compound 969] | 5.85 | < 4.35
O=C(N1CCN(c2noc(-c3ccc4cnn(C5COC5)c4c3)n2)CC1)C1(F)CC1 [Compound 970] | 8.71 | 5.07
CC(C)(C)OC(=O)N1CCC(c2nnc(-c3ccc4cnn(C5CCOC5)c4c3)o2)CC1 (centres unmarked) [Compound 971] | 7.05 | < 4.35
O=C(c1ncccc1F)N1CCN(c2noc(-c3ccc4cnn(C5COC5)c4c3)n2)CC1 [Compound 972] | 5.35 | < 4.35
COC(=O)N1CCC(c2noc(-c3ccnc(C4CCCO4)c3)n2)CC1 (centres unmarked) [Compound 973] | < 4.35 | < 4.35
O=C(CC1CC1)N1CCC(c2noc(-c3ccc4cnn(C5CCOC5)c4c3)n2)CC1 (centres unmarked) [Compound 974] | 8.00 | < 4.35
CCC(=O)N1CCC(c2noc(-c3ccc4cnn(C5CCOC5)c4c3)n2)CC1 (centres unmarked) [Compound 975] | 8.00 | < 4.35
CC(C)(C)OC(=O)N1CCN(c2nnc(-c3ccc4cnn(C5COC5)c4c3)o2)CC1 [Compound 976] | 5.27 | < 4.35
CC(C)(C)OC(=O)N1CCN(c2noc(-c3ccnc(OC4COC4)c3)n2)CC1 [Compound 977] | 5.23 | < 4.35
CCC(=O)N1CCN(c2noc(-c3ccnc(NC4COC4)c3)n2)CC1 [Compound 978] | < 4.35 | < 4.35
CC(C)(C)OC(=O)N1CCC(c2noc(-c3cccc(N4CCOCC4)c3)n2)CC1 [Compound 979] | 6.77 | < 4.35
CC1(OC(=O)N2CCC(c3nnc(-c4ccc5cnn(C6COC6)c5c4)o3)CC2)CC1 [Compound 980] | 6.06 | < 4.35
CC1(OC(=O)N2CCC(c3nnc(-c4ccc5cnn(C6COC6)c5c4)o3)CC2)CCC1 [Compound 981] | 7.35 | < 4.35
CC(C)(C)OC(=O)N1CCC(c2noc(-c3ccnc(OC4COC4)c3)n2)CC1 [Compound 982] | 6.49 | 8.00
COC(=O)N1CCC(c2noc(-c3cccc(N4CCOCC4)c3)n2)CC1 [Compound 983] | 5.82 | < 4.35

Structure (SMILES) | pIC50 (SCD5) | pIC50 (SCD1)
CC(C)(C)OC(=O)N1CC=C(c2cnc(-c3ccc4cnn(C5COC5)c4c3)nc2)CC1 [Compound 984] | < 4.35 | < 4.35
CC(C)(C)OC(=O)N1CCC(c2cnc(-c3ccc4cnn(C5COC5)c4c3)nc2)CC1 [Compound 985] | 5.59 | < 4.35
CC1(OC(=O)N2CCC(c3nnc(-c4ccc5cnn(C6CCOC6)c5c4)o3)CC2)CC1 (centres unmarked) [Compound 986] | 7.32 | < 4.35
O=C(C1CC1)N1CCN(c2nnc(-c3ccc4cnn(C5COC5)c4c3)o2)CC1 [Compound 987] | < 4.35 | < 4.35
CC(C)(C)OC(=O)N1CCC(c2noc(-c3ccc4cnn(C5COC5)c4c3F)n2)CC1 [Compound 988] | 7.62 | < 4.35
Fc1c(-c2nc(C3CCNCC3)no2)ccc2cnn(C3COC3)c12 [Compound 989] | < 4.35 | < 4.35
CC(C)(C)OC(=O)N1CCC(c2noc(-c3ccc4cnn(C5CS(=O)(=O)C5)c4c3)n2)CC1 [Compound 990] | 8.00 | < 4.35
O=C(C1CC12CC2)N1CCN(c2nnc(-c3ccc4cnn(C5COC5)c4c3)o2)CC1 (centres unmarked) [Compound 991] | < 4.35 | < 4.35
CC(C)(C)OC(=O)N1CCC(c2nc(-c3ccnc(C4CCOC4)c3)no2)CC1 (centres unmarked) [Compound 992] | 7.09 | < 4.35
O=C(C1CC2(CC2)C1)N1CCN(c2nnc(-c3ccc4cnn(C5COC5)c4c3)o2)CC1 [Compound 993] | 5.42 | < 4.35
O=C(N1CCN(c2nnc(-c3ccc4cnn(C5COC5)c4c3)o2)CC1)C12CC(C1)C2 [Compound 994] | < 4.35 | < 4.35
CC1(CC(=O)N2CCN(c3nnc(-c4ccc5cnn(C6COC6)c5c4)o3)CC2)CC1 [Compound 995] | < 4.35 | < 4.35
O=C(C1CCC1)N1CCN(c2nnc(-c3ccc4cnn(C5COC5)c4c3)o2)CC1 [Compound 996] | 5.30 | < 4.35
CC(C)(C)OC(=O)N1CCN(c2noc(-c3ccc4cnn(C5CS(=O)(=O)C5)c4c3)n2)CC1 [Compound 997] | 7.66 | < 4.35
COC(=O)N1CCN(c2noc(-c3ccc4cnn(C5CS(=O)(=O)C5)c4c3)n2)CC1 [Compound 998] | 5.38 | < 4.35
CC(C)(C)OC(=O)N1CCC(c2noc(-c3ccnc(C4CCOC4)c3)n2)CC1 (centres unmarked) [Compound 999] | 8.00 | < 4.35
COC(=O)N1CCC(c2noc(-c3ccc4cnn(C5CS(=O)(=O)C5)c4c3)n2)CC1 [Compound 1000] | 6.19 | < 4.35
O=C(C1CCC1)N1CCN(c2noc(-c3ccnc(NC4COC4)c3)n2)CC1 [Compound 1001] | 4.81 | < 4.35
